As a reminder, the EC50 is the concentration giving half of the maximal effect. Higher therefore signals a less potent agent.

Metabotropic glutamate receptor 4, sequence (Q14833 whole entry): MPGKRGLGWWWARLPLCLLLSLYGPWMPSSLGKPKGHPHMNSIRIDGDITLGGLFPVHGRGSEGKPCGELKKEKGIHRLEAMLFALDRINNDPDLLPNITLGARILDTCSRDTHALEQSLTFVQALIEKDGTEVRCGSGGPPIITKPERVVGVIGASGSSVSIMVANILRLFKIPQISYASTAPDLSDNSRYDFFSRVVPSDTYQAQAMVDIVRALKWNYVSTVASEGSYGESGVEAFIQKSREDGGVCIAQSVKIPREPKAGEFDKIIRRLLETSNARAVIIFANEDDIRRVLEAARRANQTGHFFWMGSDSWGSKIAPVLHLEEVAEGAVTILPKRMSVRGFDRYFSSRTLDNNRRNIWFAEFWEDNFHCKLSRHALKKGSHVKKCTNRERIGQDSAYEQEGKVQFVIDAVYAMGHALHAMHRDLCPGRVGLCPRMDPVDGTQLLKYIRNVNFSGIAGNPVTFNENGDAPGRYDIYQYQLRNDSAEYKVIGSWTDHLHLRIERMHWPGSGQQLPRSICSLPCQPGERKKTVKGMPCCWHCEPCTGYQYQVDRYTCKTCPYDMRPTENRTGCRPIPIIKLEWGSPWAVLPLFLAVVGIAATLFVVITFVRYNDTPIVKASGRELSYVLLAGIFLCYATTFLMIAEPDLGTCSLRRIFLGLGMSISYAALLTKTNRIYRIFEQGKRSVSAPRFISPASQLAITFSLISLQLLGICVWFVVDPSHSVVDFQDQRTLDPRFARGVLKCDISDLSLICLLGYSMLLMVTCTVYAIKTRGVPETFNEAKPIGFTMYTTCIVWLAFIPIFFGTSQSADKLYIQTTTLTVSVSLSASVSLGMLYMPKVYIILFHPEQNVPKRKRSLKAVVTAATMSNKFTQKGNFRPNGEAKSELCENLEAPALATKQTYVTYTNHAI

The test has as its target Metabotropic glutamate receptor 4 (Homo sapiens, UniProt Q14833). Type of test: functional, cell-based, HEK293.
Molecule `O=C(Nc1cnn(S(=O)(=O)c2ccc(Cl)c(Cl)c2)c1)c1ccccn1` registered an EC50 of 204 nM.

In the case of `O=C(Nc1cnn(S(=O)(=O)c2ccc(F)c(F)c2F)c1)c1ccccn1`, the midpoint of the response, the EC50, lay at 282 nM. The result for `COc1ccc(S(=O)(=O)n2cc(NC(=O)c3ccccn3)cn2)cc1` reads 170 nM; that for `O=C(Nc1cnn(S(=O)(=O)c2cc(F)c(F)c(F)c2)c1)c1ccccn1`, 234 nM; that for `Cc1ccc(S(=O)(=O)n2cc(NC(=O)c3nccs3)cn2)cc1`, 324 nM. The result for `Cc1ccc(S(=O)(=O)n2cc(NC(=O)c3ccccn3)cn2)cc1` reads 9880 nM. Molecule `Cc1cc(F)ccc1S(=O)(=O)n1cc(NC(=O)c2ccccn2)cn1` had an EC50 of 2340 nM. On to `O=C(Nc1cnn(S(=O)(=O)c2ccc(F)c(Cl)c2)c1)c1ccccn1`, for which a half-maximal effect (EC50) was put at 138 nM. The result for `Cc1cccc(S(=O)(=O)n2cc(NC(=O)c3nccs3)cn2)c1` reads 234 nM; that for `Cc1cc(S(=O)(=O)n2cc(NC(=O)c3ccccn3)cn2)ccc1F`, 124 nM.

Molecule `O=C(Nc1cnn(S(=O)(=O)c2ccc(F)c(F)c2)c1)c1ccccn1` had a 50% effective concentration (EC50) of 1740 nM. `O=C(Nc1cnn(S(=O)(=O)c2ccc(F)cc2F)c1)c1ccccn1` had a 50% effective concentration (EC50) of 1620 nM. In the case of `Cc1cccc(S(=O)(=O)n2cc(NC(=O)c3ccccn3)cn2)c1`, the EC50 was 163 nM. For `O=C(Nc1cnn(S(=O)(=O)c2ccc(Cl)c(F)c2)c1)c1ccccn1` the value was 3910 nM; for `O=C(Nc1cnn(S(=O)(=O)c2ccc(C(F)(F)F)cc2)c1)c1ccccn1`, 266 nM; for `Cc1ccc(S(=O)(=O)n2cc(NC(=O)c3ccccn3)cn2)cc1F`, 137 nM.

In the case of `O=C(Nc1cnn(S(=O)(=O)c2ccc(Cl)cc2F)c1)c1ccccn1`, the response was half-maximal at 128 nM (EC50).

For the molecule `O=C(Nc1cnn(S(=O)(=O)c2cccc(Cl)c2F)c1)c1ccccn1`, the concentration giving a half-maximal response (EC50) is 5240 nM. The result for `Cc1ccc(S(=O)(=O)n2cc(NC(=O)c3nccs3)cn2)cc1C` reads 652 nM; that for `O=C(Nc1cnn(S(=O)(=O)c2ccc(F)c(F)c2)c1)c1nccs1`, 4160 nM; that for `O=C(Nc1cnn(S(=O)(=O)c2cc(F)c(F)cc2F)c1)c1ccccn1`, 1770 nM.

Regarding `O=C(Nc1cnn(S(=O)(=O)c2cc(F)c(F)cc2Cl)c1)c1ccccn1`, the midpoint of the response, the EC50, lay at 1170 nM. Molecule `COc1ccc(S(=O)(=O)n2cc(NC(=O)c3ccccn3)cn2)cc1Cl` yielded a half-maximal effective concentration (EC50) of 260 nM. For `O=C(Nc1cnn(S(=O)(=O)c2cc(Cl)ccc2F)c1)c1ccccn1` the value was 2250 nM.

Molecule `Cc1cc(S(=O)(=O)n2cc(NC(=O)c3ccccn3)cn2)ccc1Cl` came in with an EC50 of 151 nM.

The molecule `Cc1ccc(S(=O)(=O)n2cc(NC(=O)c3ccccn3)cn2)cc1C` returned a concentration for a half-maximal effect (EC50) of 144 nM. For `Cc1ccc(S(=O)(=O)n2cc(NC(=O)c3ccccn3)cn2)c(C)c1`, the EC50 was 486 nM. For `CCc1ccc(S(=O)(=O)n2cc(NC(=O)c3ccccn3)cn2)cc1`, the response was half-maximal at 248 nM (EC50). For `O=C(Nc1cnn(S(=O)(=O)c2cc(Cl)ccc2Cl)c1)c1ccccn1` the value was 197 nM.

(Values after ChEMBL document CHEMBL3886339, “mGluR4 allosteric potentiators, compositions, and methods of treating neurological dysfunction” (2015).)
